From patent publication US20020015743A1, “USE OF THE RB1, GINSENOSIDE FOR STIMULATING ELASTIN SYNTHESIS” (priority 1997, published 2002)
“And” between values parts separate entries of the source, which are not always exact repeats. Equal values may be shown once.

Columns and labels:
fibrocytes = details: Tanaka H. et al., 1991; cited from earlier work
[1] = tested on: normal human fibroblasts (NHF-47 years); assay: Elastin secreted by normal human skin fibroblasts, ELISA on culture supernatants (NHF-47 years); assay type: cell-based; details: for Activity in % (stimulation of elastin secretion vs control): 48 h; for ng Elastin/μg prot/48 h: n=6
Excerpt: The cells had been obtained by the method of explants as described by M. Dumas et al. in the article entitled “in vitro biosynthesis of type I and III collagens by human dermal fibroblasts from donors of increasing ages” in Mech. Ageing Dev. 73 (1994), pages 179-187. These normal human skin fibroblasts thus obtained are sown in the wells of a multi-well culture box, in an E 199 culture medium, in which 2 millimoles per liter of L-glutamine have been added. Further, for a certain number of tests, the culture medium contains sodium ascorbate at concentrations of 15 or 25 micromoles per liter. 24 hours after sowing, certain wells receive ginsenoside Rb1 or an extract of Panax 1 to 10 μg/ml via a solution in DMSO so that the final DMSO concentration be 0.1%. […] These control cultures only receive DMSO at a final concentration of 0.1% by weight. The culture is continued for 48 h. After 48 h of culture as indicated above, the elastin secreted is determined on the supernatants of the culture, by an ELISA method derived from that used for the determination of collagen, as described by M. Dumas et al in the publication cited above, except that a commercial human anti-elastin polyclonal antibody was used instead of the human anti-collagen I and III polyclonal antibodies. A standard range made from commercial soluble elastin enables converting into nanograms of elastin the values of optical density (OD) obtained from the culture supernatants. In parallel with the determination of the elastin, a determination of the cell proteins is carried out on the cultures of fibroblasts, after removal of the supernatant, in order to bring the amount of elastin determined to a fixed amount of cell proteins. The determination is carried out by using a BCA-1 kit (Bicinchoninic acid kit, marketed by Sigma, France) after dissolution of the cell plug with 0.1 N sodium hydroxide solution. The results are expressed in nanograms of elastin secreted per microgram of cellular proteins. The activity A of stimulation, expressed in percentage, is calculated according to the following formula: [formula] The results obtained on the treated cultures (n=6) and controls (n=6) are compared with the aid of the Student t test for non-paired series. Any value of p<0.05 will indicate that a significant difference exists between the secretion of elastin of the control NHFs and those treated with the products of the invention.

[2] = tested on: normal human fibroblasts (NHF-50 years); assay: Elastin secreted by normal human skin fibroblasts, ELISA on culture supernatants (NHF-50 years); assay type: cell-based
Excerpt: The cells had been obtained by the method of explants as described by M. Dumas et al. in the article entitled “in vitro biosynthesis of type I and III collagens by human dermal fibroblasts from donors of increasing ages” in Mech. Ageing Dev. 73 (1994), pages 179-187. These normal human skin fibroblasts thus obtained are sown in the wells of a multi-well culture box, in an E 199 culture medium, in which 2 millimoles per liter of L-glutamine have been added. Further, for a certain number of tests, the culture medium contains sodium ascorbate at concentrations of 15 or 25 micromoles per liter. 24 hours after sowing, certain wells receive ginsenoside Rb1 or an extract of Panax 1 to 10 μg/ml via a solution in DMSO so that the final DMSO concentration be 0.1%. […] These control cultures only receive DMSO at a final concentration of 0.1% by weight. The culture is continued for 48 h. After 48 h of culture as indicated above, the elastin secreted is determined on the supernatants of the culture, by an ELISA method derived from that used for the determination of collagen, as described by M. Dumas et al in the publication cited above, except that a commercial human anti-elastin polyclonal antibody was used instead of the human anti-collagen I and III polyclonal antibodies. A standard range made from commercial soluble elastin enables converting into nanograms of elastin the values of optical density (OD) obtained from the culture supernatants. In parallel with the determination of the elastin, a determination of the cell proteins is carried out on the cultures of fibroblasts, after removal of the supernatant, in order to bring the amount of elastin determined to a fixed amount of cell proteins. The determination is carried out by using a BCA-1 kit (Bicinchoninic acid kit, marketed by Sigma, France) after dissolution of the cell plug with 0.1 N sodium hydroxide solution. The results are expressed in nanograms of elastin secreted per microgram of cellular proteins. The activity A of stimulation, expressed in percentage, is calculated according to the following formula: [formula] […]

keratinocytes = details: Nack-in-Kim et al., J.Invest.Dermatol. 1993; cited from earlier work
[3] = product 10 μg/ml, no ascorbate, DMSO 0.1%

CC(C)=CCC[C@](C)(O[C@@H]1O[C@H](CO[C@@H]2OC[C@H](O)[C@H](O)[C@H]2O)[C@@H](O)[C@H](O)[C@H]1O)[C@H]1CC[C@]2(C)[C@@H]1[C@H](O)C[C@@H]1[C@@]3(C)CC[C@H](O[C@@H]4O[C@H](CO)[C@@H](O)[C@H](O)[C@H]4O[C@@H]4O[C@H](CO)[C@@H](O)[C@H](O)[C@H]4O)C(C)(C)[C@@H]3CC[C@]12C [ginsenoside Rb2]
synthesis of glycosaminoglycans (GAG) by the fibrocytes (fibrocytes): effective to stimulate the synthesis of glycosaminoglycans (GAG)

CC(C)=CCC[C@](C)(O[C@@H]1O[C@H](CO[C@@H]2O[C@H](CO)[C@@H](O)[C@H](O)[C@H]2O)[C@@H](O)[C@H](O)[C@H]1O)[C@H]1CC[C@]2(C)[C@@H]1[C@H](O)C[C@@H]1[C@@]3(C)CC[C@H](O[C@@H]4O[C@H](CO)[C@@H](O)[C@H](O)[C@H]4O[C@@H]4O[C@H](CO)[C@@H](O)[C@H](O)[C@H]4O)C(C)(C)[C@@H]3CC[C@]12C [G-Rb1, ginsenoside Rb1]
Activity in % (stimulation of elastin secretion vs control) ([1]; product 10 μg/ml + Asc. 15 μM): 16%
ng Elastin/μg prot/48 h ([1]; product 10 μg/ml + Asc. 15 μM): 39.3 + 2.8 ng Elastin/μg prot/48 h
Activity in % (stimulation of elastin secretion vs control) ([1]; product 10 μg/ml + Asc. 25 μM): 10%
ng Elastin/μg prot/48 h ([1]; product 10 μg/ml + Asc. 25 μM): 38.8 + 6.8 ng Elastin/μg prot/48 h
Activity in % (stimulation of elastin secretion vs control) [1, 3]: 31%
ng Elastin/μg prot/48 h [1, 3]: 25.8 ± 2.2 ng Elastin/μg prot/48 h
Activity in % (stimulation of elastin secretion vs control) ([2]; NHF-50 years, product 10 μg/ml + Asc. 25 μM, 48 h): 21% and 17%
ng Elastin/μg prot/48 h ([2]; NHF-50 years, product 10 μg/ml + Asc. 25 μM, 48 h, n=6): 26.3 + 3.7 ng Elastin/μg prot/48 h and 32 + 4.3 ng Elastin/μg prot/48 h and 28 + 2.2 ng Elastin/μg prot/48 h
synthesis of elastin by the fibroblasts (conclusion in words) ([2]; conclusion from Tables 1 to 3 (NHF-47 and NHF-50 years), stimulation augments with concentration): strongly stimulate the synthesis of elastin

ginsenoside
action on the proliferation of the keratinocytes (keratinocytes): inhibitory action
